One compound from PMC10411625, “Rationally designed stapled peptides allosterically inhibit PTBP1–RNA-binding” (Chemical Science, 2023) can be followed below.

As a reminder, the Ki is a measure of affinity in units of concentration, obtained from inhibition or displacement.

The assay addresses T1, SRSF1 (Homo sapiens, UniProt Q07955).
T1 construct: SRSF1-RRM12 (1-195); His tag (cleaved yes); made in house; host or cells: E. coli BL21 (DE3)
The assay is described as follows: Competitive fluorescence polarization assay, SRSF1 and RNA-S. To be noted: Fig. 3C; competitive FP, 400 nM SRSF1, 1 nM Cy5-labeled RNA-S, pH 7.0; read-out: P-6 Ki, construct SRSF1. The class given is binding. From the text: The RRM domain is the most commonly occurring RNA-binding domain in the proteome making it challenging to find selective inhibitors.[23,46] Although various ligands have been described, their selectivity is rarely investigated, with an exception for the Musashi-1 inhibitor Ro 08-2750.[47–58] To investigate whether P-6 has an effect on the RNA-binding of other dual RRM containing proteins, we evaluated its inhibitory potency against another hnRNP protein (hnRNP A2/B1) as well as a splicing factor from the SR-protein class (SRSF1).[1] We evaluated P-6 in competitive fluorescence polarization assays using previously described RNAs recognized by these proteins.[59] […]
performed in FP bufferPTBP1. […]
serially diluted in the same buffer. […]
a final concentration of 10 nM probe. […]
the settings mentioned previously.
Fluorescence polarization assay with SRSF1
Fluorescence polarization was
Fluorescence polarization assay with hnRNPA2/B1
For the competitive assay 10 nM
Microscale thermophoresis […]
afterwards serially diluted into FP buffer.
The data was evaluated at […]
experiments were performed in duplicates.
Circular Dichroism Spectroscopy […]
secondary structure analysis with a reference data set. For experiments with PTBP1 constructs the […]
For orientation: In fluorescence polarisation assays a small probe gives low polarisation when free and higher when bound to something large.

T1 sequence (Q07955 1-195, species assumed): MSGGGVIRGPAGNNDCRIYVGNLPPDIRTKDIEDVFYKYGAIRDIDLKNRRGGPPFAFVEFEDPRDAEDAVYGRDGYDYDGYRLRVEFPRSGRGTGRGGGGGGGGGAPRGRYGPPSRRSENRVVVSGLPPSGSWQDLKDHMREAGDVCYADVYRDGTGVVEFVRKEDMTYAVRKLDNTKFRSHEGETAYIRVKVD

In the case of `CC(=O)N[C@@H](CC(N)=O)C(=O)N[C@@H](CCC(N)=O)C(=O)N[C@@]1(C)CCCC=CCCCC2(CCCC=CCCC[C@](C)(C(=O)N[C@H](C(=O)N[C@@H](CC(N)=O)C(N)=O)C(C)C)NC(=O)[C@H](CCC(N)=O)NC(=O)[C@H](CC(C)C)NC(=O)[C@H](C)NC2=O)NC(=O)[C@H](CCC(N)=O)NC(=O)[C@H](C)NC(=O)[C@H](CCCNC(=N)N)NC1=O` (stereo partly shown) [Peptide P-6], the Ki was greater than 1000 µM.
